Data on 1 compound can be found in US12012622B1, “Paenibacillus pabuli-derived enzyme capable of producing galacto-oligosaccharide, and method for producing galacto-oligosaccharide” (GODO SHUSEI CO., LTD., priority 2018, dated 2024).

In test [1] the test system is Paenibacillus pabuli lactase (enzyme of Example 1, SEQ ID NO: 1). Kind of test: Analysis of reaction rate parameter with ONPG as substrate (Validation 1). The format is biochemical. The conditions noted are these: substrate ONPG 0.075 to 7.5 mM; 40° C., 10 minutes; 100 mM sodium phosphate (pH 6.5). From the text: After the production of each enzyme, the transformant was ultrasonically disrupted to give a cell disruption liquid. […] The prepared cell disruption liquids were each ultra-filtered as necessary to concentrate the enzyme. The concentrated disruption liquid of the enzyme consisting of an amino acid sequence set forth in SEQ ID NO: 1 was defined as Example 1, and the concentrated disruption liquid of the enzyme consisting of an amino acid sequence set forth in SEQ ID NO: 2 was defined as Example 2.
The reaction rate parameter when using the ONPG of the enzyme of Example 1 as the substrate was determined by the following method. The specific activity (μmol/mg protein/min) upon reaction at a substrate concentration of 0.075 to 7.5 mM at 40° C. for 10 minutes was calculated, and the specific activity was plotted to each substrate concentration. At this time, 100 mM sodium phosphate (pH 6.5) was used as the buffer. From the substrate saturation curve measured by the above method, following the Michaelis-Menten equation, Km (Michaelis-Menten constant), which indicates the affinity between the enzyme and the substrate, and V. (maximum velocity), which indicates how many micromoles of substrate is catalyzed in 1 minute per mg of the enzyme, were calculated.

Test [2] concerns Bacillus circulans lactase β-galII (main enzyme of BIOLACTA). Particulars: substrate ONPG; cited from Non-Patent Literature 1; cited from earlier work.

Marks after values point to notes of the source that are not given here.

As a reminder, the Km is the concentration of substrate that gives half-maximal velocity. For the compound `O=[N+]([O-])c1ccccc1O[C@@H]1O[C@H](CO)[C@H](O)[C@H](O)[C@H]1O` [ONPG, o-nitrophenyl-β-galactopyranoside], the figures for the Km in test [1] and in test [2] were 360 µM and 10 mM, respectively. The Vmax in test [1] was 55.0 units/mg protein; in test [2] it was 56.0* units/mg protein.
